From publication PMC11940238, “Ru(II) Complexes with 3,4-Dimethylphenylhydrazine: Exploring In Vitro Anticancer Activity and Protein Affinities” (Biomolecules, 2025)

Key:
[1] = test system: Bovine Serum Albumin (BSA); conditions: cited from earlier work
MDA-MB-231 cells [2] = assay: MTT test; format: cell-based, human; conditions: MDA-MB-231, 24 h treatment
Description: (§1) The human breast cancer cell line (MDA-MB-231) and human pancreatic cancer cell line (MIA PaCa-2) were obtained from the American Type Culture Collection (ATCC). The cells were cultured in 25 cm^2 flasks with DMEM supplemented with 100 U/mL penicillin-streptomycin, 10% FBS, at 37 °C with 5% CO2 in a humidified incubator.
(§2) Cells were harvested when they reached 85–90% confluent. 100 µL of cell suspension (15.000 cells per well) was poured into the wells of the 96-well plate and incubated overnight to allow the cells to attach to the well. The cells were treated with 1 or 2 in concentrations ranging from 0.19 to 200 µM. Untreated cells were used as control. After 24 h, 10 µL MTT (5 mg/mL) was added to each well. Cultures were incubated for […] at 37 °C. The reduction process was stopped by adding 100 µL/well of 10% SDS acidified with 1N HCl. Dissolution of the resulting blue color was continued overnight in the incubator at 37 °C. All treatments were done in replicates of three. The absorbance was read at 540 nm on an ELISA reader (RT-6100, Rayto, Shenzhen, China). The ratio of absorbances of treated to untreated living cells was used to measure viability. Cytotoxic activity was recorded as IC50, which is the concentration necessary to reduce the absorbance of treated cells by 50% compared to the control.

MIA PaCa-2 cells [3] = assay: MTT test; format: cell-based, human; conditions: MIA PaCa-2, 24 h treatment
Description: as §1, §2

MDA-MB-231 cells [4] = assay: Examination of the cell cycle; format: cell-based, human; conditions: MDA-MB-231, 24 h, p < 0.01
MMP9 [5] = assay: Gelatin gel electrophoresis of supernatants, MMP9 activity, MDA-MB-231; format: cell-based, human
Description: (§3) MDA-MB-231 and MIA PaCa-2 cells were treated with 50 µM of complex 2 or 75 µM and 100 µM of complex 1, respectively. The treatments lasted 24 and 48 h. Untreated cells were used as control. The supernatants were collected for further analysis. Electrophoresis in a polyacrylamide gel with an add-on of 0.1% SDS and 0.2% gelatin was used to measure metalloproteinase 2 and 9 activity (MMP2 and MMP9).
(§4) The gels were imaged with a ChemiDoc Imaging System (Bio-Rad Laboratories, Hercules, CA, USA) and estimated by densitometric scanning using the Image Lab (Bio-Rad Laboratories, Inc. Version 6.0.0.25) software tool.

[6] = Stability in PBS followed by UV-VIS spectroscopy; format: physicochemical; conditions: 1 × 10^−4 M in PBS, 0-24 h
Excerpt: Ligand precursor 3,4-dimethylphenylhydrazine hydrochloride (BLDPharm), [{RuCl2(η^6-p-cymene)}2] (Carbolutions), LiOH × H2O (Sigma Aldrich, Darmstadt, Germany), methanol (Carl Roth), diethyl ether (Carl Roth) and 2-propanol (Carl Roth) were obtained commercially and used without further purification. Deuterated solvents, CDCl3 and MeOD, were procured from Deuterosolvents GmbH and used for NMR spectroscopy. NMR spectra of the synthesized complexes, including ^1H (400.23 MHz) and ^13C NMR (100.1 MHz), were recorded using a Bruker Avance™ 400 MHz Spectrometer. Elemental analysis was performed and the Institute of Chemistry, Chemnitz University of Technology (Heraeus VARIO EL oven). The stability of compounds was examined by UV-VIS spectroscopy on a Thermo Scientific UV-VIS Spectrometer (Thermo Fisher Scientific, Waltham, MA, USA) between 800 and 200 nm. For this experiment, 1 × 10^−2 M solutions of complexes in DMSO were prepared and further diluted to 1 × 10^−4 M solutions in PBS. The measurements were repeated for 24 h.

HSA [7] = molecular target: T1, HSA (Homo sapiens, UniProt P02768); assay: Spin-probing EPR: displacement of 16-DS from preformed HSA/16-DS; format: binding; conditions: for Unbound Component Contribution (XUB, %): 50 µM HSA, 250 µM 16-DS, 200 µM complex ([HSA]:[Ru-complex] 1:4), 1.2% v/v DMSO, phosphate buffer pH 7.4, EPR spectral simulation
T1 sequence (P02768 25-609): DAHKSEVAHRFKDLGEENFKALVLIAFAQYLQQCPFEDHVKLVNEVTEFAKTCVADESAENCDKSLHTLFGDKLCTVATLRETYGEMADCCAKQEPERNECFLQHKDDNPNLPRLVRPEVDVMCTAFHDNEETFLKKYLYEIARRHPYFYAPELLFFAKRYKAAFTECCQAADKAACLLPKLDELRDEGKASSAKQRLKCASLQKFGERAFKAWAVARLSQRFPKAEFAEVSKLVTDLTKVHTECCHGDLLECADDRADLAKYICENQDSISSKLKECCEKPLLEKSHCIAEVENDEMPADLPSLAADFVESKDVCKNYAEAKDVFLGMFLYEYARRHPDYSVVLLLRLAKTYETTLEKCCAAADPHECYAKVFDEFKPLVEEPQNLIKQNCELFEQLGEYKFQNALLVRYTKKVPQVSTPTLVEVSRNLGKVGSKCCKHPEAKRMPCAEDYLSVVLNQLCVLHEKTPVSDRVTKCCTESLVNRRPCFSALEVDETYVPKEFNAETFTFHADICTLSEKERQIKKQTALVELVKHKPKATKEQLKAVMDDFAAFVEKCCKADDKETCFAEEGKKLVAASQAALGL
Description: In order to investigate the nature of the interaction between the two Ru-complexes and human serum albumin (HSA), spin-probing/electron paramagnetic resonance methodology was used additionally. Namely, as HSA can bind up to seven molecules of long-chain fatty acids, and their doxyl derivatives, which are EPR-active compounds, HSA was first incubated with the fivefold concentration of 16-doxyl-stearic acid (16-DS, Sigma-Aldrich), and subsequently the aliquots of the Ru-complexes solutions were added to the HSA/16-DS mixture. For this experiment, HSA was dissolved in the 100 mM phosphate buffer, pH 7.4, and its concentration was 0.2 mM. The ethanol solution of 16-DS was transferred to the bottom of the test tube, and ethanol was dried in the Eppendorf Concentrator plus vacuum centrifuge. After the ethanol completely evaporated, an appropriate amount of HSA solution was added to the tube containing 16-DS. The concentration of the 16-DS in HSA/16-DS solution was 1 mM, i.e., [HSA]:[16-DS] molar ratio was 1:5. This stock solution was incubated until the full binding of 16-DS to HSA was achieved. The incubation involved occasional gentle vortexing and thermostating at 37 °C in a water bath.
In the next step, Ru(II) complexes were dissolved in DMSO and diluted using 100 mM phosphate buffer, pH 7.4. The concentrations of both Ru(II) complexes stock solutions were 266.67 µM. Small volumes of these solutions were added to HSA/16-DS preparation and diluted with the phosphate buffer. Afterward, the samples were incubated for 30 min before the EPR measurement. […]
The samples prepared as previously described were aspirated into the capillary gas-permeable Teflon tubes (Zeus Industries, Inc., Orangeburg, SC, USA) and placed into the resonator cavity of the X-band EPR spectrometer Bruker Elexsys II E500. […] The acquired EPR spectra were analyzed using the Bruker Xepr software and simulated by SimLabel, a graphical user interface software that is an extension of EasySpin [64], the EPR simulation package (the version of EasySpin used was 6.0.6). […]

MDA-MB-231 cells [8] = assay: Malondialdehyde and protein carbonyl concentrations in the medium; format: cell-based, human; conditions: MDA-MB-231, 24 h, 75 µM complex 1 or 50 µM complex 2, vs untreated cells
Description: (§5) MDA-MB-231 and MIA PaCa-2 cells were treated with 50 µM of complex 2 or 75 µM and 100 µM of complex 1, respectively, for 24 h. Untreated cells were used as control. The supernatants were collected and used for further analyses. Lipid peroxidation was estimated by a spectrophotometric assay based on the absorption maximum of the malondialdehyde (MDA) complex with thiobarbituric acid in an acidic environment and high temperature. 1,1,3,3-Tetramethoxypropane was used as standard. Absorbance was read on the ELISA reader using a 540 nm filter. The concentration was determined using a standard curve. The determination of protein carbonyl (PC) concentration was based on the method of Levin and associates. Absorbance was read on the ELISA reader using a 375 nm filter.

MIA PaCa-2 cells [9] = assay: as above; format: cell-based, human; conditions: MIA PaCa-2, 24 h, 100 µM complex 1 or 50 µM complex 2, vs control
Description: as §5

MIA PaCa-2 cells [10] = assay: Examination of the cell cycle; format: cell-based, human; conditions: MIA PaCa-2, 24 h
MMP9 [11] = assay: Gelatin gel electrophoresis of supernatants, MMP9 activity, MIA PaCa-2; format: cell-based, human
Description: as §3, §4

HSA [12] = molecular target: T1, HSA; assay: Spectrofluorimetric titration (fluorescence quenching) of HSA with the complexes; format: binding; conditions: for ΔHb / ΔSb: van't Hoff plot, 300-310 K
Description: The excitation wavelength was set to 285 nm, while the emission spectrum was recorded in the interval from 315 nm to 600 nm. […] solution (phosphate buffer pH = 7.6) with a concentration of 5 × 10^−6 M was titrated (5–10 times) with a complex solutions (5 × 10^−4 M). Before each addition of complexes 1 and 2 to the HSA solutions, the cuvette was thermostated for 2 min for each tested temperature, and then the fluorescence quenching spectra of proteins were recorded. Recordings started 2 min after adding complex 1/complex 2 solutions to reach the desired temperature. The data were analyzed according to the double-log Stern-Volmer (SV) equation: (1) log(I0−IQ/IQ)=logKb+nlog[Q] where Kb and n are the binding constants and the number of binding sites per HSA molecule. The binding constants were determined from the intercept values on the SV diagrams and the double log SV equation (Table 1). These values are further used for van’t Hoff plots, lnKb = f(T^−1), from which the Gibbs free energy, enthalpy, and entropy changes were determined.

HS-5 cells = assay: MTT test on healthy cells; format: cell-based; conditions: same concentrations as for cancer cells, 24 h
Description: as §2

MMP2 [13] = assay: Gelatin gel electrophoresis of supernatants, MMP2 activity, MDA-MB-231; format: cell-based, human; conditions: MDA-MB-231, 75 µM complex 1 or 50 µM complex 2, 24 and 48 h treatments
Description: as §3, §4

MMP2 [14] = assay: Gelatin gel electrophoresis of supernatants, MMP2 activity, MIA PaCa-2; format: cell-based, human; conditions: MIA PaCa-2, 100 µM complex 1 or 50 µM complex 2, 24 and 48 h treatments
Description: as §3, §4

Compound | IC50 (MDA-MB-231 cells [2]) | IC50 (MIA PaCa-2 cells [3]) | number of cells in the G0/G1 phase (MDA-MB-231 cells [4]) | number of cells in the S phase (MDA-MB-231 cells [4]) | time-dependent UV-VIS spectra (stability) [6] | Unbound Component Contribution (XUB, %) (HSA [7]) | MDA concentration in the medium (MDA-MB-231 cells [8]) | PC concentration in the medium (MDA-MB-231 cells [8]) | MDA concentration in the medium (MIA PaCa-2 cells [9]) | PC concentration in the medium (MIA PaCa-2 cells [9]) | effect on the cell cycle (MIA PaCa-2 cells [10]) | n (number of binding sites) (HSA [12]; 300 K) | ΔGb (HSA [12]; 300 K) | n (number of binding sites) (HSA [12]; 305 K) | ΔGb (HSA [12]; 305 K) | n (number of binding sites) (HSA [12]; 310 K) | ΔGb (HSA [12]; 310 K) | ΔHb (HSA [12]) | ΔSb (HSA [12]) | viability of HS-5 cells (HS-5 cells) | also measured
Cc1ccc(C(C)C)cc1.O=[N+]([O-])c1cccc([NH+]2[NH2+][Ru-]2[Cl])c1 (stereo not drawn) [[RuCl(η^6-p-cymene)(3-DNPH)], chlorido(η^6-p-cymene)(3-nitrophenylhydrazine-k^2N,N’)ruthenium(II)] |  |  |  |  |  |  |  |  |  |  |  |  |  |  |  |  |  |  |  |  | sign of the change in enthalpy and entropy of binding [1]: positive values
Cc1ccc(C(C)C)cc1.Cc1ccc(C(C)C)cc1.Cc1ccc(NN)cc1C.[Cl-].[Cl][Ru].[Cl][Ru][Cl] [complex 2, Chlorido(μ-chlorido)(η^6-p-cymene)(μ-3,4-dimethylphenylhydrazine-κ^2N,N′)ruthenium(II)-dimer chloride] | 50 µM | 50 µM | significantly decreased | increased | gradual increase in absorbance | 0.71 ± 0.02% | increased | decreased | significantly reduced | decreased | did not affect | 1.00 | -6.12 kcal/mol | 1.03 | -6.55 kcal/mol | 1.09 | -6.96 kcal/mol | 18.9 kcal/mol | 348 J mol^−1 K^−1 | did not affect the viability | MMP9 activity (MMP9 [5]; MDA-MB-231, 50 µM complex 2, 24 and 48 h treatments): did not affect; MMP9 activity (MMP9 [11]; MIA PaCa-2, 50 µM complex 2, 24 and 48 h treatments): did not affect; MMP2 activity (MMP2 [13]): No changes; MMP2 activity (MMP2 [14]): No changes
Dichlorido(η^6-p-cymene)(3,4-dimethylphenylhydrazine-κN)ruthenium(II) [complex 1] | 75 µM | 100 µM | significantly decreased | increased | monoexponential decrease in absorbance due to the hydrolysis | 0.73 ± 0.02% | reduces | reduces MDA concentration but not PC | significantly reduced | increased | did not affect | 1.05 | -6.76 kcal/mol | 1.10 | -7.46 kcal/mol | 1.21 | -8.17 kcal/mol | 35.8 kcal/mol | 590 J mol^−1 K^−1 | did not affect the viability | MMP9 activity (MMP9 [5]; MDA-MB-231, 75 µM complex 1, after 48 h, compared to control and 24 h treatment (p < 0.01)): significantly lower; Ihf/Ilf parameter (amplitude ratio of high-field and low-field peaks) (HSA [7]; [HSA]:[Ru-complex] 1:0.5 to 1:4, qualitative): more pronounced increase; MMP9 activity (MMP9 [11]; MIA PaCa-2, 100 µM complex 1, after 48 h, compared to control and 24 h treatment (p < 0.05)): significantly lower; change in Gibbs binding energy, range over the examined temperatures (HSA [12]; 27-37 °C): −28.3 to −34.2 kJ mol^−1; MMP2 activity (MMP2 [13]): No changes; MMP2 activity (MMP2 [14]): No changes
